The record followed here is patent US20230139171A1 (SITA Information Networking Computing UK Limited, priority 2019, published 2023).

Holding throughout (format): cell-based
One experiment addresses T1, human TLR8 (Homo sapiens, UniProt Q9NR97).
T1 construct: host or cells: HEK-Blue cells
T1 sequence (Q9NR97 27-1041): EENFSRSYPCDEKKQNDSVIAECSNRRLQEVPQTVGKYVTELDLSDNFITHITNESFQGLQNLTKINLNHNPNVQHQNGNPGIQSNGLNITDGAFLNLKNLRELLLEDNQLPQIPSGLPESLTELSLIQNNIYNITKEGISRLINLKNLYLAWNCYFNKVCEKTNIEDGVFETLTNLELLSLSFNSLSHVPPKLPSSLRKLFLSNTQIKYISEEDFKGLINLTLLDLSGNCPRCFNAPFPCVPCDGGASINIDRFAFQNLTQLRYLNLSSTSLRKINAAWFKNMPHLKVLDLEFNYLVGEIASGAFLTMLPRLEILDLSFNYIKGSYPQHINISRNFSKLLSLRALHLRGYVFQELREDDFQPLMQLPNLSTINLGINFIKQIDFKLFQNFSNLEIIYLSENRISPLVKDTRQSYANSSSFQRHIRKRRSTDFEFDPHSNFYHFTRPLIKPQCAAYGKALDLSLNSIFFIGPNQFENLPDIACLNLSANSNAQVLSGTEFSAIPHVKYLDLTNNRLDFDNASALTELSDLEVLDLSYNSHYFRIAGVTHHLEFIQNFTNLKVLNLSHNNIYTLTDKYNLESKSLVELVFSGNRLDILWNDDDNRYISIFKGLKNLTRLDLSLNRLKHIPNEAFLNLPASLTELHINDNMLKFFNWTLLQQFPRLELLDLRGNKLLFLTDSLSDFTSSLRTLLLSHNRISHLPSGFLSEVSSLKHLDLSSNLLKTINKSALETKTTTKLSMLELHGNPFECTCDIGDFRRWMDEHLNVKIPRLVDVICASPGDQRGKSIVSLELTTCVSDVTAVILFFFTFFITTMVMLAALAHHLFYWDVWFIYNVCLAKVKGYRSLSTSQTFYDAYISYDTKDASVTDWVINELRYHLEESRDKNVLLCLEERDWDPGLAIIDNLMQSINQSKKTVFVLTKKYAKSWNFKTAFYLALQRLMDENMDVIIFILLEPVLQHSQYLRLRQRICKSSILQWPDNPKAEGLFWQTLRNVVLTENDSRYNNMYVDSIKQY
As to the kind of experiment: TLR8 inhibition reporter assay (HEK-Blue cells, SEAP reporter, R848 stimulation). Conditions: HEK-Blue cells overexpressing human TLR8, SEAP reporter, R848 15.9 μM; read-out: TLR8 IC50. The method, boiled down: (§1)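 Compound treatment: 30 min, RT, 0.05 nM–50 μM final. Agonist: TLR7 gardiquimod 7.5 μM; TLR8 R848 15.9 μM; TLR9 ODN2006 5 nM. Incubation 22 h, 37 °C, 5% CO2. Readout SEAP, HEK-Blue Detection.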

The target in the next experiment is T2, human TLR9 (Homo sapiens, UniProt Q9NR96).
T2 construct: host or cells: HEK-Blue cells
T2 sequence (Q9NR96 26-1032): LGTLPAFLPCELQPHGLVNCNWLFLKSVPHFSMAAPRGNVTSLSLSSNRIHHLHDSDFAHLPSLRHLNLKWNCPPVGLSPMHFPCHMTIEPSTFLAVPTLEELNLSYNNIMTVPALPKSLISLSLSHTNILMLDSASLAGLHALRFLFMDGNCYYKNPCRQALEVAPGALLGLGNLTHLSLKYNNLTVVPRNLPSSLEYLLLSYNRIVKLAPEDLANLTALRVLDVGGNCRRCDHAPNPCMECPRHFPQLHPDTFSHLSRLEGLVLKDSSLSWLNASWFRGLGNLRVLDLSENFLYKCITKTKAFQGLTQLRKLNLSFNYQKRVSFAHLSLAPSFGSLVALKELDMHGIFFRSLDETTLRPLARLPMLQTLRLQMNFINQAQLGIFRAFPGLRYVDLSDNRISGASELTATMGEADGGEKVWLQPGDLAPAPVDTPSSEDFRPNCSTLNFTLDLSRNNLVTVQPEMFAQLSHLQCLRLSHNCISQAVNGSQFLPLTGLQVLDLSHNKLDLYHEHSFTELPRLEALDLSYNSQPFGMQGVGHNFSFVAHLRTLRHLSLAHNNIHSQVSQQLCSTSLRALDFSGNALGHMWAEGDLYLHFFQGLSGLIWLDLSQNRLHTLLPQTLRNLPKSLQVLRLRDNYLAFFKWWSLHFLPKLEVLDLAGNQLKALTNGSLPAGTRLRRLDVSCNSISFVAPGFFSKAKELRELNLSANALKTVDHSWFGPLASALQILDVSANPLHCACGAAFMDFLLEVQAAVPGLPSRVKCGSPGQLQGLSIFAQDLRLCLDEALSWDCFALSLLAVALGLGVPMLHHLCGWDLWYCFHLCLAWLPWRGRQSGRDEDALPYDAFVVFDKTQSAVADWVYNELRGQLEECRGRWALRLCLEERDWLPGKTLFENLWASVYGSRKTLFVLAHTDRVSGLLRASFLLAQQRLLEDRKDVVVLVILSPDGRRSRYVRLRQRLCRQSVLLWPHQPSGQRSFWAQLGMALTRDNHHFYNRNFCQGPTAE
As to the kind of experiment: TLR9 inhibition reporter assay (HEK-Blue cells, SEAP reporter, ODN2006 stimulation). Conditions: HEK-Blue cells overexpressing human TLR9, SEAP reporter, ODN2006 5 nM. The method, boiled down: as §1
Background: Reporter assays use an easily measured gene product as a stand-in for the process of interest.

The next experiment has as its target T3, human TLR7 (Homo sapiens, UniProt Q9NYK1).
T3 construct: host or cells: HEK-Blue cells
T3 sequence (Q9NYK1 27-1049): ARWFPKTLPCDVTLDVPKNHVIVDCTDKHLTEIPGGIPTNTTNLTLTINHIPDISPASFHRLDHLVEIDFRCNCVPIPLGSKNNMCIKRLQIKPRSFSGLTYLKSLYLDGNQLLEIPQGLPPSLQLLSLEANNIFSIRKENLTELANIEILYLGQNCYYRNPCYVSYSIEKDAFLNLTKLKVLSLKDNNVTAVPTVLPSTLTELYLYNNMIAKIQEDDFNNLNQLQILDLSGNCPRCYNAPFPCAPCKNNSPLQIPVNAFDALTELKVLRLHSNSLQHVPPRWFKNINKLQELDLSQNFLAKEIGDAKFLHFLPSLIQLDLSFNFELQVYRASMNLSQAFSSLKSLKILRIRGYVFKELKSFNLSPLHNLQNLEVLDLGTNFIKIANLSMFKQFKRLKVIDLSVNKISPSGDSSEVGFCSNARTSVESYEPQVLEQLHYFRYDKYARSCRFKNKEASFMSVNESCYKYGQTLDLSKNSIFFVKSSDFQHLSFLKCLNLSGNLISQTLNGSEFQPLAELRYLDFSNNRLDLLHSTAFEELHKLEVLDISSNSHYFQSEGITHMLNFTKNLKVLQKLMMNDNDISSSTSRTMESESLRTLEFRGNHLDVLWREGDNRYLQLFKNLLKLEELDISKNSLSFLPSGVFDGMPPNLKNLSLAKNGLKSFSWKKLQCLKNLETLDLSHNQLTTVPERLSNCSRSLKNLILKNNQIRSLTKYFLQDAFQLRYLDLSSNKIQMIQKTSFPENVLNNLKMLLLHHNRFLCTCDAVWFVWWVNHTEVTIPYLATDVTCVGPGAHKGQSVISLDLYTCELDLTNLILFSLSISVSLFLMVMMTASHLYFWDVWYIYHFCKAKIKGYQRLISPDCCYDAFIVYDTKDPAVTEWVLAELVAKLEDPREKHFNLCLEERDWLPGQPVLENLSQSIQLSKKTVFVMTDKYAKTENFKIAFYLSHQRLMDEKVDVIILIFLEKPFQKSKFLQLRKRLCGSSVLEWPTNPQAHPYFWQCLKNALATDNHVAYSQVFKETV
The experiment can be described thus: TLR7 inhibition reporter assay (HEK-Blue cells, SEAP reporter, gardiquimod stimulation). As to conditions: HEK-Blue cells overexpressing human TLR7, SEAP reporter, gardiquimod 7.5 μM; read-out: TLR7 IC50. Summed up: as §1

The term IC50 denotes the concentration needed to halve the response being measured. As for `COc1cc(-c2[nH]c3sc(C4CCC(N5CCS(=O)(=O)CC5)CC4)nc3c2C(C)C)cn2ncnc12` (single isomer, unassigned) [Example 83, 4-(4-(6-isopropyl-5-(8-methoxy-[1,2,4]triazolo[1,5-a]pyridin-6-yl)-4H-pyrrolo[3,2-d]thiazol-2-yl)cyclohexyl)thiomorpholine 1,1-dioxide], the IC50 is 238 nM on human TLR8, above 50000 nM on human TLR9 and 6.33 nM at human TLR7.

Consider `COc1cc(-c2[nH]c3sc(C4CCC(NCC(C)(C)O)CC4)nc3c2C(C)C)cn2ncnc12` (single isomer, unassigned) [Example 84, 1-((4-(6-isopropyl-5-(8-methoxy-[1,2,4]triazolo[1,5-a]pyridin-6-yl)-4H-pyrrolo[3,2-d]thiazol-2-yl)cyclohexyl)amino)-2-methylpropan-2-ol], for which the values for the IC50 on human TLR8, at human TLR9 and at human TLR7 were 0.84 nM, 9110 nM and 0.9 nM, respectively.

For the compound `COc1cc(-c2[nH]c3sc(C4CCC(NCC(C)(C)O)CC4)nc3c2C(C)C)cn2ncnc12` (single isomer, unassigned) [Example 85, 1-((4-(6-isopropyl-5-(8-methoxy-[1,2,4]triazolo[1,5-a]pyridin-6-yl)-4H-pyrrolo[3,2-d]thiazol-2-yl)cyclohexyl)amino)-2-methylpropan-2-ol], the figures for the 50% inhibitory concentration (IC50) at human TLR8, against human TLR9 and at human TLR7 were 17.5 nM, 6910 nM and 2.66 nM, respectively.

On to `COc1cc(-c2[nH]c3sc(C4CCC(NCC(C)(C)OC)CC4)nc3c2C(C)C)cn2ncnc12` (single isomer, unassigned) [Example 86, 4-(6-isopropyl-5-(8-methoxy-[1,2,4]triazolo[1,5-a]pyridin-6-yl)-4H-pyrrolo[3,2-d]thiazol-2-yl)-N-(2-methoxy-2-methylpropyl)cyclohexan-1-amine], for which the 50% inhibitory concentration (IC50) was found to be 0.7 nM on human TLR8, 6420 nM at human TLR9 and 1.34 nM on human TLR7.

As for `COc1cc(-c2[nH]c3sc(C4CCC(NCC(C)(C)OC)CC4)nc3c2C(C)C)cn2ncnc12` (single isomer, unassigned) [Example 87, 4-(6-isopropyl-5-(8-methoxy-[1,2,4]triazolo[1,5-a]pyridin-6-yl)-4H-pyrrolo[3,2-d]thiazol-2-yl)-N-(2-methoxy-2-methylpropyl)cyclohexan-1-amine], the 50% inhibitory concentration (IC50) came out at 11.8 nM on human TLR8, 7790 nM against human TLR9 and 1.73 nM at human TLR7.

As for `COc1cc(-c2[nH]c3sc(C4CCC(N(C)C(C)C)CC4)nc3c2C(C)C)cn2ncnc12` (single isomer, unassigned) [Example 88, N-isopropyl-4-(6-isopropyl-5-(8-methoxy-[1,2,4]triazolo[1,5-a]pyridin-6-yl)-4H-pyrrolo[3,2-d]thiazol-2-yl)-N-methylcyclohexan-1-amine], the IC50 on human TLR8 is 1.84 nM; against human TLR9, 4450 nM; on human TLR7 it was 0.81 nM.

Take `COc1cc(-c2[nH]c3sc(C4CCC(N(C)C(C)C)CC4)nc3c2C(C)C)cn2ncnc12` (single isomer, unassigned) [Example 89, N-isopropyl-4-(6-isopropyl-5-(8-methoxy-[1,2,4]triazolo[1,5-a]pyridin-6-yl)-4H-pyrrolo[3,2-d]thiazol-2-yl)-N-methylcyclohexan-1-amine]: the half-maximal inhibitory concentration (IC50) was 18.9 nM at human TLR8, 4100 nM against human TLR9 and 1.48 nM at human TLR7.

For the compound `COc1cc(-c2[nH]c3sc(C4CCC(NC[C@@H](F)C(C)(C)O)CC4)nc3c2C(C)C)cn2ncnc12` (single isomer, unassigned) [Example 90], the IC50 at human TLR8 is 1.13 nM; at human TLR9, 11100 nM; on human TLR7, 0.8 nM.

`COc1cc(-c2[nH]c3sc(C4CCC(NC[C@@H](F)C(C)(C)O)CC4)nc3c2C(C)C)cn2ncnc12` (single isomer, unassigned) [Example 91]: the 50% inhibitory concentration (IC50) at human TLR8 stood at 8.12 nM; against human TLR9 it was 6720 nM; on human TLR7 it was 4.01 nM.

On to `COc1cc(-c2[nH]c3sc(C4CCC(N)CC4)nc3c2C(C)C)cn2ncnc12` (single isomer, unassigned) [Example 92, 4-(6-isopropyl-5-(8-methoxy-[1,2,4]triazolo[1,5-a]pyridin-6-yl)-4H-pyrrolo[3,2-d]thiazol-2-yl)cyclohexan-1-amine], for which the figures for the IC50 on human TLR8, against human TLR9 and on human TLR7 were 2.34 nM, 4110 nM and 0.31 nM, respectively.

With `COc1cc(-c2[nH]c3sc(C4CCC(N)CC4)nc3c2C(C)C)cn2ncnc12` (single isomer, unassigned) [Example 93, 4-(6-isopropyl-5-(8-methoxy-[1,2,4]triazolo[1,5-a]pyridin-6-yl)-4H-pyrrolo[3,2-d]thiazol-2-yl)cyclohexan-1-amine], the IC50 was 15.6 nM at human TLR8, 12000 nM against human TLR9 and 1.89 nM at human TLR7.
